# Like-named read-outs stand apart in the source and are kept apart here.
# Experiments:
# [1] = Zeta potential of LHA510 particles with additives; format: physicochemical; settings: dispersant deionized water
# Procedure: It was determined that NaCMC unexpectedly provide the 1H-indole-1-carboxamide with desired Zeta Potential. In particular, NaCMC creates repulsive forces between the particles of 1H-indole-1-carboxamide.
# [2] = Ocular tissue and plasma PK after single unilateral topical dose; format: in vivo, pigmented NZW×NZR rabbits; settings: pigmented NZW×NZR, rabbit, single unilateral 30 μL dose at 0.5%, 1% and 2%
# Procedure: A single unilateral dose (30 μL) of a preferred ophthalmic suspension composition (i.e., suspension C-2 in Example 3 below) of the present invention was dosed onto the right (OD) eye of pigmented NZW×NZR rabbits at 0.5%, 1%, and 2% N-(1-methyl-5-(trifluoromethyl)-1H-pyrazol-3-yl)-5-((6-((methylamino)methyl)pyrimidin-4-yl)oxy)-1H-indole-1-carboxamide.
# [3] = Ocular tissue and plasma PK after repeated t.i.d. monocular dosing for 7 days; format: in vivo, pigmented rabbits; settings: 2% t.i.d. 7 days
# Procedure: In the contralateral undosed eyes of the 2% t.i.d treatment group, N-(1-methyl-5-(trifluoromethyl)-1H-pyrazol-3-yl)-5-((6-((methylamino)methyl)pyrimidin-4-yl)oxy)-1H-indole-1-carboxamide exposure was lower with the AUClast values of 1260 ng*h/g in cornea, 293000 ng*h/g in RPE/choroid and 3640 ng*h/g in retina.
# PK parameters of 1H-indole-1-carboxamide in ocular tissues and plasma following repeated t.i.d. monocular OD dosing for 7 days of 2% N-(1-methyl-5-(trifluoromethyl)-1H-pyrazol-3-yl)-5-((6-((methylamino)methyl)pyrimidin-4-yl)oxy)-1H-indole-1-carboxamide formulation in pigmented rabbits employing suspension C-2 in Table B below.
# [4] = Solubility in 5% HP-β-CD at pH 4.5 versus pH 7 (Table II); format: physicochemical; settings: for Solubility Enhancement (fold): compared to intrinsic solubility at pH 7
# Excerpt: Thus, depending upon the type of composition, the desired pH of the composition may be different. For compositions that include the cyclodextrin derivative, particularly the β-cyclodextrin derivative, γ-cyclodextrin derivative or combination thereof, and even more typically hydroxypropy-β-cyclodextrin, hydroxypropyl-γ-cyclodextrin or a combination thereof, the pH is preferably relatively low. The relatively low pH is typically at least 3.0, more typically at least 4.0 and even more typically at least 4.3, but is typically no greater than 5.5, more typically no greater than 5.0 and even more typically no greater than 4.7. It is also preferable that the pH of the composition be at least 4.0 but no greater than 5.0 and more preferably at least 4.3 but no greater than 4.7. Such compositions will typically be solutions in which the 1H-indole-1-carboxamide is dissolved.
# [5] = Solubility in 8% HP-γ-CD in acetate buffer with different pH adjustment agents (Table III); format: physicochemical
# [6] = Equilibrium solubility in HPβCD or HPγCD in acetate (first Table I); format: physicochemical; settings: for solubility at 3 day: thermodynamic from solid, read-out: 1H-indole-1-carboxamide Solubility
# Excerpt: Hydroxypropyl-γ-cyclodextrin is preferred for dissolution of the 1H-indole-1-carboxamide.
# [7] = as above; format: physicochemical; settings: for solubility at 3 day: thermodynamic from solid, read-out: 1H-indole-1-carboxamide Solubility; remark: listed apart in the source
# [8] = NZW×NZR (pigmented), rabbit, RPE/choroid of the dosed eye (OD), topical or ocular, 2 % formulation, RPE/Choroid OD (dosed eye)
# [9] = NZW×NZR (pigmented), rabbit, cornea of the dosed (OD) eye, topical or ocular, Cornea OD (dosed eye)
# [10] = NZW×NZR (pigmented), rabbit, cornea of the undosed (OS) eye, topical or ocular, Cornea OS (undosed eye)
# [11] = pigmented NZW×NZR, rabbit, RPE/choroid of the undosed (OS) eye, topical or ocular, RPE/Choroid OS (undosed eye)
# [12] = pigmented NZW×NZR, rabbit, retina of the dosed (OD) eye, topical or ocular, Retina OD (dosed eye)
# [13] = pigmented NZW×NZR, rabbit, retina of the undosed (OS) eye, topical or ocular, Retina OS (undosed eye)
structure (smiles),measurement,setting,value
"CNCc1cc(Oc2ccc3c(ccn3C(=O)Nc3cc(C(F)(F)F)n(C)n3)c2)ncn1 [LHA510, N-(1-methyl-5-(trifluoromethyl)-1H-pyrazol-3-yl)-5-((6-((methylamino)methyl)pyrimidin-4-yl)oxy)-1H-indole-1-carboxamide]",Zeta Potential,[1]; Additive: 10 mM NaCl,0.6 mV
same,Zeta Potential,[1]; Additive: 0.1% Pluronic F127,−1.09 mV
same,Zeta Potential,[1]; Additive: 0.5% Sodium CMC 7LF PH,−40.3 mV
same,Zeta Potential,[1]; Additive: 1% Pluronic F127,−0.962 mV
same,Zeta Potential,[1]; Additive: 1% Polyvinyl phosphoric acid (PVPA),−0.835 mV
same,Zeta Potential,[1]; Additive: 1% Povidone (PVP 29/32),0 mV
same,Zeta Potential,[1]; Additive: 1% Sodium CMC 7LF PH,−47.8 mV
same,Zeta Potential,[1]; Additive: 1% Vitamin E TPGS,−1.77 mV
same,Zeta Potential,[1]; Additive: None,−2.58 mV
same,Tmax,[2]; RPE/choroid,18 to 48 h
same,Tmax,[2]; all ocular tissues and plasma except RPE/choroid,0.5 to 3 h
same,plasma accumulation,[3],no evidence of plasma accumulation
same,AUClast Mean,"[3]; Cornea OD (dosed eye), Tlast = 96 h",317000 ng·h/g
same,AUClast Mean,"[3]; Cornea OS (undosed eye), Tlast = 96 h",1260 ng·h/g
same,Cmax,[3]; [8],6410 ng/g
same,Tmax,[3]; [8],0.5 h
same,Cmax,[3]; [9],32300 ng/g
same,Tmax,[3]; [9],1 h
same,Cmax,[3]; [10],47.5 ng/g
same,Tmax,[3]; [10],0 h
same,Tmax,"[3]; NZW×NZR (pigmented), rabbit, topical or ocular, Plasma",0.5 h
same,Cmax,"[3]; NZW×NZR (pigmented), rabbit, topical, Plasma",1.85 ng/mL
same,AUC(0-t),"[3]; NZW×NZR (pigmented), rabbit, topical, Plasma, Tlast = 96 h, read-out: AUClast Mean",5.12 ng·h/mL
same,AUClast Mean,"[3]; RPE/Choroid OD (dosed eye), Tlast = 96 h",453000 ng·h/g
same,AUClast Mean,"[3]; RPE/Choroid OS (undosed eye), Tlast = 96 h",293000 ng·h/g
same,local penetration in the dosed eyes as share of the total AUClast,[3]; RPE/choroid,37.1%
same,AUClast Mean,"[3]; Retina OD (dosed eye), Tlast = 96 h",8400 ng·h/g
same,AUClast Mean,"[3]; Retina OS (undosed eye), Tlast = 96 h",3640 ng·h/g
same,Cmax,[3]; [11],3950 ng/g
same,Tmax,[3]; [11],18 h
same,Cmax,[3]; [12],122 ng/g
same,Tmax,[3]; [12],18 h
same,Cmax,[3]; [13],67.2 ng/g
same,Tmax,[3]; [13],18 h
same,local penetration in the dosed eyes as share of the total AUClast,[3]; retina,56.7%
same,solubility,"[4]; 5% HP-β-CD in acetate buffer, aqueous with cosolvent or surfactant or cyclodextrin, 5% HP-β-CD/Acetate buffer/pH 4.5, final pH 4.64, read-out: 1H-indole-1-carboxamide Solubility",11.7 mg/mL
same,solubility,"[4]; 5% HP-β-CD in phosphate buffer, aqueous with cosolvent or surfactant or cyclodextrin, 5% HP-β-CD/Phosphate buffer/pH 7, final pH 7.06, read-out: 1H-indole-1-carboxamide Solubility",1.01 mg/mL
same,Solubility Enhancement (fold),[4]; 5% HP-β-CD/Acetate buffer/pH 4.5,1667 fold
same,Solubility Enhancement (fold),[4]; 5% HP-β-CD/Phosphate buffer/pH 7,144 fold
same,solubility,"[4]; pH 7, aqueous buffer, read-out: intrinsic solubility",~0.007 mg/mL
same,solubility,"[5]; pH 4.732, aqueous with cosolvent or surfactant or cyclodextrin, pH adjustment agent 1N Glucoronic acid, final pH 4.732, read-out: 1H-indole-1-carboxamide Solubility",36 mg/mL
same,solubility,"[5]; pH 4.872, aqueous with cosolvent or surfactant or cyclodextrin, pH adjustment agent 1N Citric acid, final pH 4.872, read-out: 1H-indole-1-carboxamide Solubility",6.88 mg/mL
same,solubility,"[5]; pH 4.887, aqueous with cosolvent or surfactant or cyclodextrin, pH adjustment agent 1N Acetic acid, final pH 4.887, read-out: 1H-indole-1-carboxamide Solubility",30.3 mg/mL
same,solubility,"[5]; pH 4.887, aqueous with cosolvent or surfactant or cyclodextrin, pH adjustment agent 1N Hydrochloric acid, final pH 4.887, read-out: 1H-indole-1-carboxamide Solubility",15.5 mg/mL
same,solubility,"[5]; pH 4.902, aqueous with cosolvent or surfactant or cyclodextrin, pH adjustment agent 1N Methanesulfonic acid, final pH 4.902, read-out: 1H-indole-1-carboxamide Solubility",32.6 mg/mL
same,solubility,"[5]; pH 4.955, aqueous with cosolvent or surfactant or cyclodextrin, pH adjustment agent 1N Lactic acid, final pH 4.955, read-out: 1H-indole-1-carboxamide Solubility",33 mg/mL
same,solubility,"[5]; pH 4.973, aqueous with cosolvent or surfactant or cyclodextrin, pH adjustment agent 1N Sulfuric acid, final pH 4.973, read-out: 1H-indole-1-carboxamide Solubility",35.6 mg/mL
same,solubility,"[5]; pH 5.014, aqueous with cosolvent or surfactant or cyclodextrin, pH adjustment agent 1N Phosphoric acid, final pH 5.014, read-out: 1H-indole-1-carboxamide Solubility",25.4 mg/mL
same,1H-indole-1-carboxamide Solubility,"[6]; 1% HPγCD in Acetate, pH 4.607, equilibrium solubility at day 3",9.09 mg/mL
same,1H-indole-1-carboxamide Solubility,"[6]; 2.5% HPγCD in Acetate, pH 4.555, equilibrium solubility at day 3",14.69 mg/mL
same,solubility at 3 day,"[6]; 2.5% HPγCD in acetate, pH 4.555, aqueous with cosolvent or surfactant or cyclodextrin, 2.5% HPγCD in Acetate, pH 4.555, equilibrium solubility at day 3",14.7 mg/mL
same,1H-indole-1-carboxamide Solubility,"[6]; 5% HPγCD in Acetate, pH 4.505, equilibrium solubility at day 3",22.34 mg/mL
same,solubility at 3 day,"[6]; 5% HPγCD in acetate, pH 4.505, aqueous with cosolvent or surfactant or cyclodextrin, 5% HPγCD in Acetate, pH 4.505, equilibrium solubility at day 3",21.9 mg/mL
same,1H-indole-1-carboxamide Solubility,"[6]; 8% HPγCD in Acetate, pH 4.580, equilibrium solubility at day 3",30.60 mg/mL
same,solubility at 3 day,"[6]; 10% HPγCD in acetate, pH 4.668, aqueous with cosolvent or surfactant or cyclodextrin, 10% HPγCD in Acetate, pH 4.668, equilibrium solubility at day 3",34.3 mg/mL
same,1H-indole-1-carboxamide Solubility,"[7]; 1% HPβCD in Acetate, pH 4.584, equilibrium solubility at day 3",7.28 mg/mL
same,solubility at 3 day,"[7]; 1% HPβCD in acetate, pH 4.584, aqueous with cosolvent or surfactant or cyclodextrin, 1% HPβCD in Acetate, pH 4.584, equilibrium solubility at day 3",7.5 mg/mL
same,solubility at 3 day,"[7]; 1% HPγCD in acetate, pH 4.607, aqueous with cosolvent or surfactant or cyclodextrin, 1% HPγCD in Acetate, pH 4.607, equilibrium solubility at day 3",9.28 mg/mL
same,1H-indole-1-carboxamide Solubility,"[7]; 2.5% HPβCD in Acetate, pH 4.606, equilibrium solubility at day 3",12.45 mg/mL
same,solubility at 3 day,"[7]; 2.5% HPβCD in acetate, pH 4.606, aqueous with cosolvent or surfactant or cyclodextrin, 2.5% HPβCD in Acetate, pH 4.606, equilibrium solubility at day 3",12.5 mg/mL
same,1H-indole-1-carboxamide Solubility,"[7]; 5% HPβCD in Acetate, pH 4.670, equilibrium solubility at day 3",15.93 mg/mL
same,solubility at 3 day,"[7]; 5% HPβCD in acetate, pH 4.67, aqueous with cosolvent or surfactant or cyclodextrin, 5% HPβCD in Acetate, pH 4.670, equilibrium solubility at day 3",19.6 mg/mL
same,1H-indole-1-carboxamide Solubility,"[7]; 8% HPβCD in Acetate, pH 4.530, equilibrium solubility at day 3",25.67 mg/mL
same,solubility at 3 day,"[7]; 8% HPβCD in acetate, pH 4.53, aqueous with cosolvent or surfactant or cyclodextrin, 8% HPβCD in Acetate, pH 4.530, equilibrium solubility at day 3",25.7 mg/mL
same,solubility at 3 day,"[7]; 8% HPγCD in acetate, pH 4.58, aqueous with cosolvent or surfactant or cyclodextrin, 8% HPγCD in Acetate, pH 4.580, equilibrium solubility at day 3",30.7 mg/mL
same,1H-indole-1-carboxamide Solubility,"[7]; 10% HPβCD in Acetate, pH 4.610, equilibrium solubility at day 3",30.57 mg/mL
same,solubility at 3 day,"[7]; 10% HPβCD in acetate, pH 4.61, aqueous with cosolvent or surfactant or cyclodextrin, 10% HPβCD in Acetate, pH 4.610, equilibrium solubility at day 3",30.6 mg/mL
same,1H-indole-1-carboxamide Solubility,"[7]; 10% HPγCD in Acetate, pH 4.668, equilibrium solubility at day 3",34.56 mg/mL
